Results reported in PubChem BioAssay AID1963863 (Molecular Pharmacology Branch, DTP, NCI, 2024).

Tested on: 931267-113-T-J1-PDC KRAS spheroid with HUVEC/MSC, viability
Assay: Anticancer human tumor 931267-113-T-J1-PDC patient-derived colon adenocarcinoma cell line growth inhibition [KRAS2]
Details: for IC50: curve of first compound; for viability, T/C: stronger effect = lower value
Method in brief: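 KRAS-mutant tumor cells were grown as spheroids with HUVEC endothelial cells and human MSCs as stroma. Targeted agents were tested alone and with KRAS pathway inhibitors. Doses started at or near clinical Cmax, or 10 microM, descending half-log.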

[1] = second compound 0.1 µM, first compound 0.0316 µM
[2] = second compound 0.1 µM, first compound 0.1 µM
[3] = second compound 0.1 µM, first compound 0.316 µM
[4] = second compound 0.1 µM, first compound 1 µM
[5] = second compound 0.1 µM, first compound 3.16 µM
[6] = second compound 0.1 µM, first compound 10 µM
[7] = second compound 0.316 µM, first compound 0.0316 µM
[8] = second compound 0.316 µM, first compound 0.1 µM
[9] = second compound 0.316 µM, first compound 0.316 µM
[10] = second compound 0.316 µM, first compound 1 µM
[11] = second compound 0.316 µM, first compound 3.16 µM
[12] = second compound 0.316 µM, first compound 10 µM
[13] = second compound 1 µM, first compound 0.0316 µM
[14] = second compound 1 µM, first compound 0.1 µM
[15] = second compound 1 µM, first compound 0.316 µM
[16] = second compound 1 µM, first compound 1 µM
[17] = second compound 1 µM, first compound 3.16 µM
[18] = second compound 1 µM, first compound 10 µM
[19] = second compound 3.16 µM, first compound 0.0316 µM
[20] = second compound 3.16 µM, first compound 0.1 µM
[21] = second compound 3.16 µM, first compound 0.316 µM
[22] = second compound 3.16 µM, first compound 1 µM
[23] = second compound 3.16 µM, first compound 3.16 µM
[24] = second compound 3.16 µM, first compound 10 µM
[25] = second compound 10 µM, first compound 0.0316 µM
[26] = second compound 10 µM, first compound 0.1 µM
[27] = second compound 10 µM, first compound 0.316 µM
[28] = second compound 10 µM, first compound 1 µM
[29] = second compound 10 µM, first compound 3.16 µM
[30] = second compound 10 µM, first compound 10 µM
[31] = second compound 0.1 µM, first compound 0.01 µM
[32] = second compound 0.316 µM, first compound 0.01 µM
[33] = second compound 1 µM, first compound 0.01 µM
[34] = second compound 3.16 µM, first compound 0.01 µM
[35] = second compound 10 µM, first compound 0.01 µM
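Further: compound exposure lasted 7 days before the readout.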
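Wherever viability, T/C is given: 100% = DMSO vehicle control viability.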

| Compound | IC50 (second compound 0.1 µM) | IC50 (second compound 0.316 µM) | IC50 (second compound 1 µM) | IC50 (second compound 3.16 µM) | IC50 (second compound 10 µM) | viability, T/C [1] | viability, T/C [2] | viability, T/C [3] | viability, T/C [4] | viability, T/C [7] | viability, T/C [8] | viability, T/C [9] | viability, T/C [10] | viability, T/C [13] | viability, T/C [14] | viability, T/C [15] | viability, T/C [16] | viability, T/C [19] | viability, T/C [20] | viability, T/C [21] | further results |
| --- | --- | --- | --- | --- | --- | --- | --- | --- | --- | --- | --- | --- | --- | --- | --- | --- | --- | --- | --- | --- | --- |
| CC(C)NCC(C(=O)N1CCN(c2ncnc3c2C(C)CC3O)CC1)c1ccc(Cl)cc1 (stereo not given) + CNCc1ccccc1-c1csc(C(C)Nc2nc(C)nc3cc(OC)c(OC)cc23)c1 | 4930 nM | 5430 nM | 90.5 nM | < 31.6 nM | < 31.6 nM | 96.3% | 90.4% | 79% | 68.4% | 76% | 70% | 63.6% | 54.6% | 60.7% | 47.9% | 38.9% | 33.4% | 0.1% | 0.18% | 0.09% | viability, T/C [5]: 59.3%; viability, T/C [6]: 38.6%; viability, T/C [11]: 69.1%; viability, T/C [12]: 31.1%; viability, T/C [17]: 21.6%; viability, T/C [18]: 19.2%; viability, T/C [22]: 0.1%; viability, T/C [23]: 0.14%; viability, T/C [24]: 0.16%; viability, T/C [25]: 0.17%; viability, T/C [26]: 0.15%; viability, T/C [27]: 0.15%; viability, T/C [28]: 0.14%; viability, T/C [29]: 0.25%; viability, T/C [30]: 1.22% |
| CC1COCCN1c1cc(-c2ccnn2C)c2ccnc(-c3ccn[nH]3)c2n1 (stereo not given) + CNCc1ccccc1-c1csc(C(C)Nc2nc(C)nc3cc(OC)c(OC)cc23)c1 | 49.6 nM | 46.6 nM | 27.8 nM | < 10 nM | < 10 nM | 64.9% | 27.4% | 11.4% | 17.1% | 64.9% | 20.6% | 14.7% | 16.9% | 48.8% | 19.8% | 7.5% | 10.8% | 0.07% | 0.05% | 0.04% | viability, T/C [31]: 87.4%; viability, T/C [5]: 18%; viability, T/C [32]: 80.2%; viability, T/C [11]: 15.3%; viability, T/C [33]: 58.3%; viability, T/C [17]: 6.12%; viability, T/C [34]: 0.07%; viability, T/C [22]: 0.05%; viability, T/C [23]: 0.14%; viability, T/C [35]: 0.16%; viability, T/C [25]: 0.09%; viability, T/C [26]: 0.1%; viability, T/C [27]: 0.1%; viability, T/C [28]: 0.11%; viability, T/C [29]: 1.06% |
| CCN1CCN(Cc2ccc(Nc3ncc(F)c(-c4cc(F)c5nc(C)n(C(C)C)c5c4)n3)nc2)CC1 + CNCc1ccccc1-c1csc(C(C)Nc2nc(C)nc3cc(OC)c(OC)cc23)c1 | 149 nM | 70.1 nM | 6.73 nM | < 3.16 nM | < 3.16 nM | 56.5% | 56.6% | 43.2% | 28.6% | 46.4% | 49% | 38.5% | 3.67% | 28.7% | 32.2% | 1.49% | 0.15% | 0.08% | 0.09% | 0.05% | viability, T/C (second compound 0.1 µM, first compound 0.00316 µM): 76.8%; viability, T/C [31]: 82.9%; viability, T/C (second compound 0.316 µM, first compound 0.00316 µM): 75.2%; viability, T/C [32]: 60.7%; viability, T/C (second compound 1 µM, first compound 0.00316 µM): 60.1%; viability, T/C [33]: 43.3%; viability, T/C (second compound 3.16 µM, first compound 0.00316 µM): 0.13%; viability, T/C [34]: 0.12%; viability, T/C [22]: 0.14%; viability, T/C (second compound 10 µM, first compound 0.00316 µM): 4.51%; viability, T/C [35]: 0.16%; viability, T/C [25]: 0.18%; viability, T/C [26]: 0.15%; viability, T/C [27]: 1.23%; viability, T/C [28]: 0.18% |
| CCNC(=O)CC1N=C(c2ccc(Cl)cc2)c2cc(OC)ccc2-n2c(C)nnc21 (stereo not given) + CNCc1ccccc1-c1csc(C(C)Nc2nc(C)nc3cc(OC)c(OC)cc23)c1 | 775 nM | 240 nM | 170 nM | < 31.6 nM | < 31.6 nM | 96.5% | 109% | 63.5% | 54.9% | 75.7% | 75.2% | 42% | 45.7% | 64.4% | 53% | 43.6% | 36.7% | 0.1% | 0.1% | 0.08% | viability, T/C [5]: 46.4%; viability, T/C [6]: 37.3%; viability, T/C [11]: 30.8%; viability, T/C [12]: 30.9%; viability, T/C [17]: 31%; viability, T/C [18]: 18.1%; viability, T/C [22]: 0.08%; viability, T/C [23]: 0.07%; viability, T/C [24]: 0.16%; viability, T/C [25]: 0.15%; viability, T/C [26]: 0.46%; viability, T/C [27]: 0.12%; viability, T/C [28]: 0.12%; viability, T/C [29]: 0.12%; viability, T/C [30]: 0.2% |
| Cn1nccc1Nc1nccc(-c2cc3c(s2)C(C)(C)N(CCN2CCOCC2)C3=O)n1 + CNCc1ccccc1-c1csc(C(C)Nc2nc(C)nc3cc(OC)c(OC)cc23)c1 | 323 nM | 433 nM | 88.4 nM | < 31.6 nM | < 31.6 nM | 73.6% | 71.3% | 44.5% | 34.1% | 76.4% | 75.4% | 60.6% | 21.4% | 56.5% | 51% | 26.6% | 11.2% | 0.1% | 0.09% | 0.08% | viability, T/C [5]: 6.18%; viability, T/C [6]: 2.96%; viability, T/C [11]: 4.19%; viability, T/C [12]: 1.79%; viability, T/C [17]: 0.39%; viability, T/C [18]: 0.15%; viability, T/C [22]: 0.11%; viability, T/C [23]: 0.04%; viability, T/C [24]: 0.11%; viability, T/C [25]: 0.11%; viability, T/C [26]: 0.13%; viability, T/C [27]: 0.13%; viability, T/C [28]: 0.11%; viability, T/C [29]: 0.11%; viability, T/C [30]: 0.42% |
